From US9682141B2, “Combination of kinase inhibitors and uses thereof” (INTELLIKINE LLC, priority 2011, dated 2017)

Legend:
Format in all cases: biochemical
PI3K α = PI3K α (Homo sapiens (Human), UniProt P42336); assay: PI 3-Kinase (human) HTRF assay, p110α/p85α
PI3K γ = PI3K γ (Homo sapiens (Human), UniProt P48736); assay: PI 3-Kinase (human) HTRF assay, p110γ; conditions: read-out: PI3K γ IC50
PI3K δ = PI3K δ (Homo sapiens (Human), UniProt O00329); assay: PI 3-Kinase (human) HTRF assay, p110δ/p85α
PI3K δ, sequence (O00329 whole entry): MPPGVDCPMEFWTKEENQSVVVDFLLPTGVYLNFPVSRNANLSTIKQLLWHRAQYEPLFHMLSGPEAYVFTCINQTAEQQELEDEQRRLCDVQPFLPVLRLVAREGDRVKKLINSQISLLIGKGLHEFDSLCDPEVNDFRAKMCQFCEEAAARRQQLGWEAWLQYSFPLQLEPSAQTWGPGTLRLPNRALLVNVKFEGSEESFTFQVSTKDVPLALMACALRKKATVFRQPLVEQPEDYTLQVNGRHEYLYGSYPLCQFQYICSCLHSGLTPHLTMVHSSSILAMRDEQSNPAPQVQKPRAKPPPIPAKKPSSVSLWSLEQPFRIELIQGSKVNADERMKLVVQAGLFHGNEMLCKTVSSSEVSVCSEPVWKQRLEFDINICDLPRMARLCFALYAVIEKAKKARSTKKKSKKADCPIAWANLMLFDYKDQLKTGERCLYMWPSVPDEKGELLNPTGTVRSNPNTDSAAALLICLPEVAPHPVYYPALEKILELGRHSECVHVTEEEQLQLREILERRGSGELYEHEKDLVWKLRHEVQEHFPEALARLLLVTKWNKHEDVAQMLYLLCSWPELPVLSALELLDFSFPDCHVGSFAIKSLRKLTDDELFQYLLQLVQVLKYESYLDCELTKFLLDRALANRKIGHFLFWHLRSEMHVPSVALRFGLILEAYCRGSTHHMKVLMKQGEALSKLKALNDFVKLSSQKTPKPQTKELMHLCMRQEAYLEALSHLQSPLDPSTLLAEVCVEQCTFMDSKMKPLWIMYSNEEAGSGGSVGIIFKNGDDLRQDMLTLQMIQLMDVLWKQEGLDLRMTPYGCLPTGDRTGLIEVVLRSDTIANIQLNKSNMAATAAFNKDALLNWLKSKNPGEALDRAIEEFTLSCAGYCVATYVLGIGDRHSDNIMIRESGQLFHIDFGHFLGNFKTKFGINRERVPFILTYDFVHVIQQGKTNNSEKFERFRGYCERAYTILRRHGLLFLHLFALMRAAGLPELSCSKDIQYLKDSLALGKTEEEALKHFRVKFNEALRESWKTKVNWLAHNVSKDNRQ
PI3K δ, sequence (P27986 whole entry partner): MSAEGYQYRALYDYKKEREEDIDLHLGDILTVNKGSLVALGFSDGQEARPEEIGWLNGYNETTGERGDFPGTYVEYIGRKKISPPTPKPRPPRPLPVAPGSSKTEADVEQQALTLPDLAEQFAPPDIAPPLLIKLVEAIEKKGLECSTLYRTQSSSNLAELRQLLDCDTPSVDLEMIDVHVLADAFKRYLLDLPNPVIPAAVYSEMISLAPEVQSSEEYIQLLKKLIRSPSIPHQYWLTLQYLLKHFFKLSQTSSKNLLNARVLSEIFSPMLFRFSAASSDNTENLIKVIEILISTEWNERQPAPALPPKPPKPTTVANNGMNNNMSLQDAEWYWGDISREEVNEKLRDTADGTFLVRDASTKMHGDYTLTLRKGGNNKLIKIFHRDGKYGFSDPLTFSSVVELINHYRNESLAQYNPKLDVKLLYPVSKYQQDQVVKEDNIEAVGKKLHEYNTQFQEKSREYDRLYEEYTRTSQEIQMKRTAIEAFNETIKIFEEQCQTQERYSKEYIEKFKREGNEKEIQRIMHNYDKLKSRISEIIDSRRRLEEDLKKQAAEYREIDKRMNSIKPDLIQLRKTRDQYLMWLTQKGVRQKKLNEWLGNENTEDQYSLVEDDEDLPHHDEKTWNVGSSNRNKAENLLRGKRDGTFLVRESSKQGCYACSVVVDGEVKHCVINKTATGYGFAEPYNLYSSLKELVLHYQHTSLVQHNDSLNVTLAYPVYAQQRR

PI3K β = PI3K β (Homo sapiens (Human), UniProt P42338); assay: PI 3-Kinase (human) HTRF assay, p110β/p85α
PI3K β, sequence (P42338 whole entry): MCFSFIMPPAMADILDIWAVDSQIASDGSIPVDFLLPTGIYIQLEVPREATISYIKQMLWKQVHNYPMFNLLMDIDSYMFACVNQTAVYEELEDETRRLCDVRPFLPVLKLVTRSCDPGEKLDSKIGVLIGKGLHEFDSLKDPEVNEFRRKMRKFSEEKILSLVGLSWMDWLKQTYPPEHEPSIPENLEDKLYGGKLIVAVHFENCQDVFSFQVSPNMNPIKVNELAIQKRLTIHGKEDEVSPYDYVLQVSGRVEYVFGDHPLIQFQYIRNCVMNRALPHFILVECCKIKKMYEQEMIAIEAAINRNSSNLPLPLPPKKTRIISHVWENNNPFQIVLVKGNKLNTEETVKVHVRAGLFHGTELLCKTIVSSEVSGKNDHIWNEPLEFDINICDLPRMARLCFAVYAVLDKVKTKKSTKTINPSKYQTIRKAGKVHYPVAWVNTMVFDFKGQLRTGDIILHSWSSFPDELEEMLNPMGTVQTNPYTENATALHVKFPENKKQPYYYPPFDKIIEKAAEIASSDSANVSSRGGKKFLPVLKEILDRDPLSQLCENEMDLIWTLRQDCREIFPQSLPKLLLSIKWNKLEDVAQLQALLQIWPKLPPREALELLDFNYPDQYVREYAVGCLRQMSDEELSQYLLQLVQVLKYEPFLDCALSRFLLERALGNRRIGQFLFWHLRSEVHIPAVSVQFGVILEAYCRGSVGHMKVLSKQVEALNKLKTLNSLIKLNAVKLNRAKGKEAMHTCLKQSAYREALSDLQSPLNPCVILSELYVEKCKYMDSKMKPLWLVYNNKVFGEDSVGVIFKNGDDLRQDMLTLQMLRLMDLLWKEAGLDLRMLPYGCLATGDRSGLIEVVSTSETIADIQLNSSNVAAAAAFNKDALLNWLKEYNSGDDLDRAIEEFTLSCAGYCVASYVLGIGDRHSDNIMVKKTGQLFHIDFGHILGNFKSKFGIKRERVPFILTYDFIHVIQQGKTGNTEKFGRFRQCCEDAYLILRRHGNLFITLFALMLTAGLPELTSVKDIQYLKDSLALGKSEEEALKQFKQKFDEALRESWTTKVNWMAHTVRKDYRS
PI3K β, sequence (P27986 whole entry partner): as the sequence (P27986 whole entry partner) above

PI3K α, sequence (P42336 whole entry): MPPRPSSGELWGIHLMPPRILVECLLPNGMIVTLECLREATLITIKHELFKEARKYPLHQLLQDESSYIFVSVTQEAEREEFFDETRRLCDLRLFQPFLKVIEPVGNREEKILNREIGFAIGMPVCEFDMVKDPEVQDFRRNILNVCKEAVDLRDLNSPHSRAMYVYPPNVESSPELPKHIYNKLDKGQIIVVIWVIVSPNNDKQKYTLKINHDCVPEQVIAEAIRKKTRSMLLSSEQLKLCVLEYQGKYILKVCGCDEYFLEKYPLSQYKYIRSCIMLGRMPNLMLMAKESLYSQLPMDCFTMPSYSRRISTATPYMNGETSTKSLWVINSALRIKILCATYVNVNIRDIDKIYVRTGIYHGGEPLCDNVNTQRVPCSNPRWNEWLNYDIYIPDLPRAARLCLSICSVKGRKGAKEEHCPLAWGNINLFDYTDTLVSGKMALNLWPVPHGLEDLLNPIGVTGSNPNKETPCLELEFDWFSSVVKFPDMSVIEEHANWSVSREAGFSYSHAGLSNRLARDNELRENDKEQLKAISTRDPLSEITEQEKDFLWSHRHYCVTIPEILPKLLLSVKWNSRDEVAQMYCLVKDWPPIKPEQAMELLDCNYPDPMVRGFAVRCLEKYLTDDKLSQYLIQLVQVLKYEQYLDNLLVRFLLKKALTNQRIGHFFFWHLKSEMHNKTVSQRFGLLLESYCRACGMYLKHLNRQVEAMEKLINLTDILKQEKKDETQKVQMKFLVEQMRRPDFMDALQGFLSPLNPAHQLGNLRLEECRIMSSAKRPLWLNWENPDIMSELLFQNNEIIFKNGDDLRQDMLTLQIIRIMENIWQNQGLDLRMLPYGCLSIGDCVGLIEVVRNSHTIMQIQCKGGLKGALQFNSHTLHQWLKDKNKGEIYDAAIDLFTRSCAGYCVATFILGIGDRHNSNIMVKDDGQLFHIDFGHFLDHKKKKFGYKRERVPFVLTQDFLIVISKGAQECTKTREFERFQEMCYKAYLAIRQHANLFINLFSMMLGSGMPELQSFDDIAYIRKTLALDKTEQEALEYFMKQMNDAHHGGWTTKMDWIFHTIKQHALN
PI3K α, sequence (P27986 whole entry partner): as the sequence (P27986 whole entry partner) above
PI3K γ, sequence (P48736 whole entry): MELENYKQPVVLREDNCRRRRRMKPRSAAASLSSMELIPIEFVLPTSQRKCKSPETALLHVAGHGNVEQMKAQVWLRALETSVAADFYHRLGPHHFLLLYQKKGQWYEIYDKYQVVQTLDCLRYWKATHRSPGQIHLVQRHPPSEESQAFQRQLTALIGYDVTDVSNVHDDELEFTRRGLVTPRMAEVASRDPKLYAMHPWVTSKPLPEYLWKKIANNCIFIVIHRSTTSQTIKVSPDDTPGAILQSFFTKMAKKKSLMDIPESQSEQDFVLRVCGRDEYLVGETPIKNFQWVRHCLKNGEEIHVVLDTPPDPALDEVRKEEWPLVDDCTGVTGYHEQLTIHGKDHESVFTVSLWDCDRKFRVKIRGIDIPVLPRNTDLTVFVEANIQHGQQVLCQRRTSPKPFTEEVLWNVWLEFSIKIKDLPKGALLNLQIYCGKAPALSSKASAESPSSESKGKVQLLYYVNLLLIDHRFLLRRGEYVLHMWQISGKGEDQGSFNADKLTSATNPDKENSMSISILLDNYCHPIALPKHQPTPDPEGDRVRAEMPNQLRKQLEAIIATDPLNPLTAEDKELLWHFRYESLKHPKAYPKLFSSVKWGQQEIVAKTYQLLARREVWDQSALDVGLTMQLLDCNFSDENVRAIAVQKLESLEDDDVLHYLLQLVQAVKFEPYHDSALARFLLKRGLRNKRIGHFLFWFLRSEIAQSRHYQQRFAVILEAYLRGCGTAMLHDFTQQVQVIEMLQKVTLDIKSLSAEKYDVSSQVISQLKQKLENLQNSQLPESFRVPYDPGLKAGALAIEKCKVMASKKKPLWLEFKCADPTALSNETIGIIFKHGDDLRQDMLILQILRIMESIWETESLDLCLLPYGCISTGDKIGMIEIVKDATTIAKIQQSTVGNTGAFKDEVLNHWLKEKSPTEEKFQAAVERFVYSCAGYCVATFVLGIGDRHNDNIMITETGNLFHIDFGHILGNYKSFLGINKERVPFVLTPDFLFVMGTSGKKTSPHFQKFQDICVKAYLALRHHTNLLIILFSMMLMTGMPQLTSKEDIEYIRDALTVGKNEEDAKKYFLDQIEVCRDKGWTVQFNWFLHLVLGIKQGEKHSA

Row | Structure (SMILES) | IC50 (PI3K α) [nM] | IC50 (PI3K γ) [µM] | IC50 (PI3K δ) [µM] | IC50 (PI3K β) [µM]
1 | CN1CCN(c2cnc3ccc(-c4ccc5sc(N)nc5c4)cc3n2)CC1 | < 1000 | < 10 | > 10 | < 0.1
2 | Nc1nc2ccc(-c3ccc4ncc(N5CCOCC5)nc4c3)cc2o1 | < 100 | < 1 | > 10 | < 1
3 | Nc1nc2ccc(-c3ccc4ncn(C5CCOCC5)c(=O)c4c3)cc2o1 | < 10000 | > 10 | > 10 | > 10
4 | CC(C)N1CCN(c2cnc3ccc(-c4ccc5oc(N)nc5c4)cc3n2)CC1 | < 100 | < 0.1 | < 1 | < 0.1
5 | Nc1nc2cc(-c3ccc4ncc(N5CCC(O)CC5)nc4n3)ccc2o1 | < 100 | < 0.1 | > 10 | < 10
6 | CN1CCN(C(=O)c2cnc3ccc(-c4ccc5sc(N)nc5c4)cn23)CC1 | < 1000 | > 10 | > 10 | < 10
7 | CC1CN(c2cnc3ccc(-c4ccc5oc(N)nc5c4)cc3n2)CCO1 (stereo not shown) | < 100 | < 0.1 | < 10 | < 1
8 | CC(=O)Nc1nc2ccc(-c3nc(N4CCOCC4)c4sc(CN5CCN(S(C)(=O)=O)CC5)cc4n3)cc2s1 | > 10000 | > 10 | > 10 | > 10
9 | CC1CN(C(=O)c2cnc3ccc(-c4ccc5oc(N)nc5c4)cn23)CC(C)N1 (stereo not shown) | < 10000 | > 10 | > 10 | > 10
10 | Nc1noc2ccc(-c3ccc4nccc(-c5ccncc5)c4c3)cc12 [Compound 18] | < 10000 | < 10 | > 10 | > 10
11 | Nc1nc2cc(-c3ccc4ncc(C5=CCOCC5)nc4n3)ccc2o1 | < 100 | < 0.1 | > 10 | < 10
12 | Nc1nc2cc(-c3ccc4ncc(N5CC6CCC(C5)O6)nc4n3)ccc2o1 | < 100 | < 1 | > 10 | > 10
13 | Nc1nc2cc(-c3ccc4ncc(N5CCOCC5)nc4n3)ccc2o1 | < 100 | < 0.1 | > 10 | < 1
14 | CC(C)N1CCN(C(=O)c2cnc3ccc(-c4ccc5oc(N)nc5c4)cn23)CC1 | < 100 | > 10 | > 10 | < 10
15 | Cc1ncccc1-c1cnc2ccc(-c3ccc4oc(N)nc4c3)cc2n1 | < 1000 | > 10 | > 10 | > 10
16 | CC(=O)N1CCN(C(=O)c2cnc3ccc(-c4ccc5oc(N)nc5c4)cn23)CC1 | < 100 | < 1 | > 10 | > 10
17 | CN(C)CC(=O)N1CCC(Nc2ncnc3ccc(-c4ccc5oc(N)nc5c4)cc23)CC1 | < 100 | < 1 | < 1 | < 1
18 | Nc1nc2cc(-c3ccc4ncc(-c5ccccc5)nc4c3)ccc2o1 | < 1000 | > 10 | > 10 | > 10
19 | NCC(=O)N1CCN(c2cnc3ccc(-c4ccc5oc(N)nc5c4)nc3n2)CC1 | < 100 | < 10 | < 10 | < 10
20 | CC1CN(C2CN(c3cnc4ccc(-c5ccc6oc(N)nc6c5)nc4n3)C2)CCO1 (stereo not shown) | < 1000 | < 10 | > 10 | > 10

Row | Structure (SMILES) | IC50 (PI3K α) [nM] | IC50 (PI3K γ) [µM] | IC50 (PI3K δ) [µM] | IC50 (PI3K β) [µM]
21 | CN1CCN(C(=O)c2cnc3ccc(-c4ccc5oc(N)nc5c4)cc3n2)CC1 | < 10000 | > 10 | > 10 | > 10
22 | CC(=O)N1CCN(c2cnc3ccc(-c4ccc5oc(N)nc5c4)cc3n2)CC1 | < 100 | < 0.1 | < 0.1 | < 0.1
23 | CCN1CCN(c2cnc3ccc(-c4ccc5oc(N)nc5c4)cc3n2)CC1 | < 100 | < 1 | < 10 | < 0.1
24 | Cn1c(N2CCOCC2)nc2cc(-c3ccc4oc(N)nc4c3)ccc2c1=O | < 1000 | > 10 | > 10 | > 10
25 | CC(C)(C#N)c1ccc(Nc2ncnc3ccc(-c4ccc5oc(N)nc5c4)cc23)cc1 | < 100 | < 0.1 | < 1 | < 1
26 | CN1CCCN(c2cnc3ccc(-c4ccc5oc(N)nc5c4)cc3n2)CC1 | < 1000 | < 10 | > 10 | < 1
27 | Nc1nc2cc(-c3cn4c(-c5cn[nH]c5)cnc4cn3)ccc2o1 | < 1000 | < 1 | < 10 | < 10
28 | CC(N)C(=O)N1CCN(c2cnc3ccc(-c4ccc5oc(N)nc5c4)cc3n2)CC1 (stereo not shown) | < 100 | < 10 | < 1 | < 1
29 | CCOC(=O)N1CC=C(c2cnc3ccc(-c4ccc5oc(N)nc5c4)nc3n2)CC1 | < 100 | < 0.1 | < 10 | < 10
30 | Nc1nc2cc(-c3ccc4ncc(C(=O)N5CCOCC5)n4c3)ccc2s1 | < 1000 | < 1 | > 10 | < 10
31 | Nc1nc2cc(-c3ccc4nccc(-c5ccncc5)c4c3)ccc2s1 | < 100 | < 0.1 | < 0.1 | < 0.1
32 | Nc1nc2cc(-c3ccc4ncc(N5CCC(N)CC5)nc4c3)ccc2o1 | < 100 | > 10 | < 10 | < 1
33 | CN(CCN1CCOCC1)c1cnc2ccc(-c3ccc4oc(N)nc4c3)cc2n1 | < 1000 | < 10 | > 10 | < 10
34 | CN1CC(C(=O)N2CCC(Nc3ncnc4ccc(-c5ccc6oc(N)nc6c5)cc34)CC2)C1 | < 100 | < 1 | < 0.1 | < 1
35 | Nc1nc2cc(-c3ccc4ncc(N5CC6CCC(C5)O6)cc4n3)ccc2o1 | < 100 | < 0.1 | > 10 | > 10
36 | Nc1nc2ccc(-c3ccc4ncc(C(=O)N5CCOCC5)n4c3)cc2o1 | < 1000 | < 1 | > 10 | < 1
37 | C[C@H]1CN(c2cnc3ccc(-c4ccc5oc(N)nc5c4)nc3n2)CCN1 | < 1000 | < 10 | < 10 | < 0.1
38 | CN1CCN(c2nc3cc(-c4ccc5oc(N)nc5c4)ccc3c(=O)n2C)CC1 | < 10000 | > 10 | > 10 | > 10
39 | CC(C)N1CCN(c2cnc3ccc(-c4ccc5oc(N)nc5c4)nc3n2)CC1 | < 100 | < 1 | < 10 | < 1
40 | CCN1CCC(n2cnc3ccc(-c4ccc5oc(N)nc5c4)cc3c2=O)CC1 | < 1000 | > 10 | > 10 | < 10

Row | Structure (SMILES) | IC50 (PI3K α) [nM] | IC50 (PI3K γ) [µM] | IC50 (PI3K δ) [µM] | IC50 (PI3K β) [µM]
41 | CN1CCC(N(C)c2cnc3ccc(-c4ccc5oc(N)nc5c4)cc3n2)CC1 | < 100 | < 10 | < 1 | < 10
42 | Nc1nc2cc(-c3ccc4ncn(C5CCNCC5)c(=O)c4c3)ccc2o1 | < 100 | < 10 | > 10 | < 10
43 | Nc1nc2cc(-c3ccc4ncc(C(=O)N5CCOCC5)nc4c3)ccc2o1 | < 10000 | > 10 | > 10 | > 10
44 | NCC(=O)N1CCN(c2cnc3ccc(-c4ccc5oc(N)nc5c4)cc3n2)CC1 | < 100 | < 1 | < 1 | < 1
45 | CS(=O)(=O)N1CCC(Nc2ncnc3ccc(-c4ccc5oc(N)nc5c4)cc23)CC1 | < 100 | < 0.1 | < 0.1 | < 1
46 | CN1CCN(c2ncnc3ccc(-c4ccc5oc(N)nc5c4)cc23)CC1 [Compound 23] | < 100 | < 0.1 | < 10 | < 1
47 | Nc1nc2cc(-c3ccc4ncc(-c5cnn(CCO)c5)nc4c3)ccc2o1 | < 100 | < 0.1 | > 10 | < 10
48 | CCN(CC)c1cnc2ccc(-c3ccc4oc(N)nc4c3)nc2n1 | < 1000 | < 1 | < 10 | > 10
49 | C[C@H]1CN(C2CN(c3cnc4ccc(-c5ccc6oc(N)nc6c5)nc4n3)C2)CCN1C | < 100 | > 10 | < 10 | > 10
50 | Nc1nc2cc(-c3ccc4ncc(C(=O)N5CCOCC5)cc4c3)ccc2o1 | < 10000 | > 10 | > 10 | > 10
51 | Nc1nc2cc(-c3ccc4ncc(C(=O)N5CCCC5)n4c3)ccc2o1 | < 100 | < 0.1 | < 1 | < 10
52 | CCNC(=O)c1cnc2ccc(-c3ccc4oc(N)nc4c3)cn12 | < 100 | < 0.1 | < 1 | < 1
53 | Nc1nc2cc(-c3ccc4ncc(-c5ccnc(N6CCOCC6)c5)nc4c3)ccc2o1 | < 1000 | > 10 | > 10 | > 10
54 | Nc1nc2cc(-c3ccc4ncc(C(=O)N5CCC(N6CCOCC6)CC5)n4c3)ccc2o1 | < 1000 | < 10 | < 10 | < 10
55 | CNC(=O)CN1CCN(c2cnc3ccc(-c4ccc5oc(N)nc5c4)cc3n2)CC1 | < 100 | > 10 | < 10 | < 1
56 | Cc1nccn1-c1cnc2ccc(-c3ccc4oc(N)nc4c3)cc2n1 | < 100 | < 0.1 | < 10 | < 1
57 | CN1CCN(c2ccnc3ccc(-c4ccc5oc(N)nc5c4)cc23)CC1 [Compound 21] | < 1000 | < 10 | < 10 | < 10
58 | CN1CCN(c2ccc3ncc(-c4ccc5oc(N)nc5c4)cc3n2)CC1 | < 10000 | > 10 | > 10 | < 10
